Assay results from patent publication US20250353891A1 (MEDIMMUNE LIMITED, priority 2022, published 2025).
Like-named read-outs stand apart in the source and are kept apart here. Starred links: 1 amine or outer side, 2 acyl side, 3 side chain; linkers in the order of their positions; H or OH if unused. Non-standard residues stand in square brackets, D forms with d. Residues, ends and D or L forms follow the SMILES beside them. Groups on a side chain read outwards from the residue. *: point of attachment. C20 diacid = O=C(O)CCCCCCCCCCCCCCCCCCC(=O)*; C18 diacid = O=C(O)CCCCCCCCCCCCCCCCC(=O)*; γGlu = O=C(O)[C@H](CCC(=O)[*:2])N[*:1]; αMeF = C[C@](N)(Cc1ccccc1)C(=O)O; AEEA = NCCOCCOCC(=O)O; Aib = CC(C)(N)C(=O)O

Key:
[1] = biological target: human GLP-1 receptor (hGLP-1R) (Homo sapiens, UniProt P43220); assay: cAMP production (HTRF) in CHO cells expressing hGLP-1R; type: cell-based; parameters: expressed in transfected cells; settings: for EC50: Table 6, peptides modified at position 17, cAMP in CHO hGLP-1R cells, geometric mean; for % Relative Potency Ratio: Table 6, % GLP-1R activity relative to GLP-1 / % GlucR activity relative to glucagon
Procedure, shortened: (§1)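 Potency values represent EC50 from 4-parameter logistic curves of HTRF % Delta F signal. Receptor-expressing CHO cells (hGCGR 2×10^5 cells/mL, hGLP-1R 1×10^5 cells/mL) were exposed for 30 min at room temperature before two-step cAMP detection.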

[2] = biological target: human glucagon receptor (hGCGR) (Homo sapiens, UniProt P47871); assay: cAMP production (HTRF) in CHO cells expressing hGCGR; type: cell-based; parameters: expressed in transfected cells; settings: Table 6, peptides modified at position 17, cAMP in CHO hGCGR cells, geometric mean
Procedure, shortened: as §1

human glucagon receptor (hGCGR), sequence (P47871 26-477): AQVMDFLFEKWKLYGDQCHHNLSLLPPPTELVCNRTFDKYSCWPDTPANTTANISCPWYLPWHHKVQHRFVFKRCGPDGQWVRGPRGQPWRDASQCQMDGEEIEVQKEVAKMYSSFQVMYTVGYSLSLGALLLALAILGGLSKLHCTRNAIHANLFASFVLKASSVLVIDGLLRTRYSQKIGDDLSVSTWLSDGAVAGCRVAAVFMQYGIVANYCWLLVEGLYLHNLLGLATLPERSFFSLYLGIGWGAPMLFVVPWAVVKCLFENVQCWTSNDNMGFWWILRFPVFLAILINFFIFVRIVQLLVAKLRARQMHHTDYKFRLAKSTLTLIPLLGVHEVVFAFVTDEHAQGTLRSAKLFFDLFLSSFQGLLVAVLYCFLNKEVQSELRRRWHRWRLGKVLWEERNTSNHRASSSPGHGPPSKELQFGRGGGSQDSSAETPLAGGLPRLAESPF
human GLP-1 receptor (hGLP-1R), sequence (P43220 24-463): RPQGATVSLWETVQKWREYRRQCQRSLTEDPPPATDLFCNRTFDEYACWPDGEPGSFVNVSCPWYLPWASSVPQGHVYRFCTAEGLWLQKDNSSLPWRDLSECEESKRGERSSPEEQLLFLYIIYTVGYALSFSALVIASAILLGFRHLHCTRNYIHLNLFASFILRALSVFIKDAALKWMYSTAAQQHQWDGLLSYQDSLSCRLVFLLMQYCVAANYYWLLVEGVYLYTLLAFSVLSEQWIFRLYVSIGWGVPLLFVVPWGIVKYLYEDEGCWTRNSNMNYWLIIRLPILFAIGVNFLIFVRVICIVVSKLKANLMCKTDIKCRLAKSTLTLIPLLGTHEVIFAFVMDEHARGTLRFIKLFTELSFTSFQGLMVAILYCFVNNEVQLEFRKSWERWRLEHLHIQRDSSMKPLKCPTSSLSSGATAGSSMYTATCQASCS

Row | EC50 ([1]; read-out: hGLP-1R EC50) | % Relative Potency Ratio [1] | EC50 ([2]; read-out: hGluc-R EC50) | SMILES | EC50 ([1]; hGLP-1R EC50 (pM)) | EC50 ([2]; hGluc-R EC50 (pM))
1 | 62.7 pM | 2.3 | 72.8 pM | CC(C)C[C@H](NC(=O)[C@H](Cc1c[nH]c2ccccc12)NC(=O)[C@H](CCCNC(=N)N)NC(=O)[C@@H](NC(=O)[C@H](Cc1ccccc1)NC(=O)[C@H](CC(=O)O)NC(=O)[C@H](CCC(N)=O)NC(=O)[C@H](C)NC(=O)[C@H](CCCNC(=N)N)NC(=O)[C@H](CCCCNC(=O)COCCOCCNC(=O)COCCOCCNC(=O)CC[C@H](NC(=O)CCCCCCCCCCCCCCCCCCC(=O)O)C(=O)O)NC(=O)[C@H](CCCCN)NC(=O)[C@H](CC(=O)O)NC(=O)[C@H](CC(C)C)NC(=O)[C@](C)(Cc1ccccc1)NC(=O)[C@H](CCCCN)NC(=O)[C@H](CO)NC(=O)[C@@H](NC(=O)[C@H](CC(=O)O)NC(=O)[C@H](CO)NC(=O)[C@@H](NC(=O)[C@H](Cc1ccccc1)NC(=O)[C@@H](NC(=O)CNC(=O)[C@H](CCC(N)=O)NC(=O)C(C)(C)NC(=O)[C@@H](N)Cc1c[nH]cn1)[C@@H](C)O)[C@@H](C)O)C(C)C)C(C)C)C(=O)N[C@@H](CC(C)C)C(=O)NC(C)(C)C(=O)N[C@@H](CCC(=O)O)C(N)=O [Peptide 441] (H-H[Aib]QGTFTSDVSK[αMeF]LDKK([AEEA-AEEA-γGlu-C20 diacid])RAQDFVRWLL[Aib]E-NH2; N-terminus assumed) |  | 
2 | 19.1 pM | 3.7 | 35.8 pM | CC(C)C[C@H](NC(=O)[C@H](Cc1c[nH]c2ccccc12)NC(=O)[C@H](CCCNC(=N)N)NC(=O)[C@@H](NC(=O)[C@H](Cc1ccccc1)NC(=O)[C@H](CC(=O)O)NC(=O)[C@H](CCC(N)=O)NC(=O)[C@H](C)NC(=O)[C@H](CCCNC(=N)N)NC(=O)[C@H](CCCCNC(=O)COCCOCCNC(=O)COCCOCCNC(=O)CC[C@H](NC(=O)CCCCCCCCCCCCCCCCC(=O)O)C(=O)O)NC(=O)[C@H](CCCCN)NC(=O)[C@H](CC(=O)O)NC(=O)[C@H](CC(C)C)NC(=O)[C@](C)(Cc1ccccc1)NC(=O)[C@H](CCCCN)NC(=O)[C@H](CO)NC(=O)[C@@H](NC(=O)[C@H](CC(=O)O)NC(=O)[C@H](CO)NC(=O)[C@@H](NC(=O)[C@H](Cc1ccccc1)NC(=O)[C@@H](NC(=O)CNC(=O)[C@H](CCC(N)=O)NC(=O)C(C)(C)NC(=O)[C@@H](N)Cc1c[nH]cn1)[C@@H](C)O)[C@@H](C)O)C(C)C)C(C)C)C(=O)N[C@@H](CC(C)C)C(=O)N[C@@H](CCC(=O)O)C(=O)NC(C)(C)C(=O)NCC(N)=O [Peptide 442] (H-H[Aib]QGTFTSDVSK[αMeF]LDKK([AEEA-AEEA-γGlu-C18 diacid])RAQDFVRWLLE[Aib]G-NH2; N-terminus assumed) |  | 
3 | 20.6 pM | 2.2 | 22.4 pM | CC(C)C[C@H](NC(=O)[C@H](Cc1c[nH]c2ccccc12)NC(=O)[C@H](CCCNC(=N)N)NC(=O)[C@@H](NC(=O)[C@H](Cc1ccccc1)NC(=O)[C@H](CC(=O)O)NC(=O)[C@H](CCCNC(=N)N)NC(=O)[C@H](C)NC(=O)[C@H](CCCNC(=N)N)NC(=O)[C@H](CCCCNC(=O)COCCOCCNC(=O)COCCOCCNC(=O)CC[C@H](NC(=O)CCCCCCCCCCCCCCCCC(=O)O)C(=O)O)NC(=O)[C@H](CCCCN)NC(=O)[C@H](CC(=O)O)NC(=O)[C@H](CC(C)C)NC(=O)[C@](C)(Cc1ccccc1)NC(=O)[C@H](CCCCN)NC(=O)[C@H](CO)NC(=O)[C@@H](NC(=O)[C@H](CC(=O)O)NC(=O)[C@H](CO)NC(=O)[C@@H](NC(=O)[C@H](Cc1ccccc1)NC(=O)[C@@H](NC(=O)CNC(=O)[C@H](CCC(N)=O)NC(=O)C(C)(C)NC(=O)[C@@H](N)Cc1c[nH]cn1)[C@@H](C)O)[C@@H](C)O)C(C)C)C(C)C)C(=O)N[C@@H](CC(C)C)C(=O)NC(C)(C)C(=O)N[C@@H](CCC(=O)O)C(N)=O [Peptide 443] (H-H[Aib]QGTFTSDVSK[αMeF]LDKK([AEEA-AEEA-γGlu-C18 diacid])RARDFVRWLL[Aib]E-NH2; N-terminus assumed) |  | 
4 | 32.9 pM | 22.0 | 366 pM | CC(C)C[C@H](NC(=O)[C@H](Cc1c[nH]c2ccccc12)NC(=O)[C@H](CCCNC(=N)N)NC(=O)[C@@H](NC(=O)[C@H](Cc1ccccc1)NC(=O)[C@H](CC(=O)O)NC(=O)[C@H](CCC(N)=O)NC(=O)[C@H](C)NC(=O)[C@H](CCCNC(=N)N)NC(=O)[C@H](CCCCNC(=O)COCCOCCNC(=O)COCCOCCNC(=O)CC[C@H](NC(=O)CC[C@H](NC(=O)CCCCCCCCCCCCCCCCC(=O)O)C(=O)O)C(=O)O)NC(=O)[C@H](CCCNC(=N)N)NC(=O)[C@H](CC(=O)O)NC(=O)[C@H](CC(C)C)NC(=O)[C@](C)(Cc1ccccc1)NC(=O)[C@H](CCCCN)NC(=O)[C@H](CO)NC(=O)[C@@H](NC(=O)[C@H](CC(=O)O)NC(=O)[C@H](CO)NC(=O)[C@@H](NC(=O)[C@H](Cc1ccccc1)NC(=O)[C@@H](NC(=O)CNC(=O)[C@H](CCC(N)=O)NC(=O)C(C)(C)NC(=O)[C@@H](N)Cc1c[nH]cn1)[C@@H](C)O)[C@@H](C)O)C(C)C)C(C)C)C(=O)N[C@H](C(=O)NC(C)(C)C(=O)N[C@@H](CCC(=O)O)C(N)=O)C(C)C [Peptide 446] (H-H[Aib]QGTFTSDVSK[αMeF]LDRK([AEEA-AEEA-γGlu-γGlu-C18 diacid])RAQDFVRWLV[Aib]E-NH2; N-terminus assumed) |  | 

Further lines, the compound ahead of its results:

Row | SMILES | EC50 ([1]; read-out: hGLP-1R EC50) | % Relative Potency Ratio [1] | EC50 ([2]; read-out: hGluc-R EC50) | EC50 ([1]; hGLP-1R EC50 (pM)) | EC50 ([2]; hGluc-R EC50 (pM))
5 | CC(C)C[C@H](NC(=O)[C@H](Cc1c[nH]c2ccccc12)NC(=O)[C@H](CCCNC(=N)N)NC(=O)[C@@H](NC(=O)[C@H](Cc1ccccc1)NC(=O)[C@H](CC(=O)O)NC(=O)[C@H](CCC(N)=O)NC(=O)[C@H](C)NC(=O)[C@H](CCCNC(=N)N)NC(=O)[C@H](CCCCNC(=O)COCCOCCNC(=O)COCCOCCNC(=O)CC[C@H](NC(=O)CCCCCCCCCCCCCCCCC(=O)O)C(=O)O)NC(=O)[C@H](CCCNC(=N)N)NC(=O)[C@H](CC(=O)O)NC(=O)[C@H](CC(C)C)NC(=O)[C@](C)(Cc1ccccc1)NC(=O)[C@H](CCCCN)NC(=O)[C@H](CO)NC(=O)[C@@H](NC(=O)[C@H](CC(=O)O)NC(=O)[C@H](CO)NC(=O)[C@@H](NC(=O)[C@H](Cc1ccccc1)NC(=O)[C@@H](NC(=O)CNC(=O)[C@H](CCC(N)=O)NC(=O)C(C)(C)NC(=O)[C@@H](N)Cc1c[nH]cn1)[C@@H](C)O)[C@@H](C)O)C(C)C)C(C)C)C(=O)N[C@@H](CC(C)C)C(=O)NC(C)(C)C(=O)N[C@@H](CCC(=O)O)C(N)=O [Peptide 439] (H-H[Aib]QGTFTSDVSK[αMeF]LDRK([AEEA-AEEA-γGlu-C18 diacid])RAQDFVRWLL[Aib]E-NH2; N-terminus assumed) | 30.6 pM | 3.7 | 57.7 pM |  | 
6 | CC(C)C[C@H](NC(=O)[C@H](Cc1c[nH]c2ccccc12)NC(=O)[C@H](CCCNC(=N)N)NC(=O)[C@@H](NC(=O)[C@H](Cc1ccccc1)NC(=O)[C@H](CC(=O)O)NC(=O)[C@H](CCCNC(=N)N)NC(=O)[C@H](C)NC(=O)[C@H](CCCNC(=N)N)NC(=O)[C@H](CCCCNC(=O)COCCOCCNC(=O)COCCOCCNC(=O)CC[C@H](NC(=O)CCCCCCCCCCCCCCCCCCC(=O)O)C(=O)O)NC(=O)[C@H](CCCCN)NC(=O)[C@H](CC(=O)O)NC(=O)[C@H](CC(C)C)NC(=O)[C@](C)(Cc1ccccc1)NC(=O)[C@H](CCCCN)NC(=O)[C@H](CO)NC(=O)[C@@H](NC(=O)[C@H](CC(=O)O)NC(=O)[C@H](CO)NC(=O)[C@@H](NC(=O)[C@H](Cc1ccccc1)NC(=O)[C@@H](NC(=O)CNC(=O)[C@H](CCC(N)=O)NC(=O)C(C)(C)NC(=O)[C@@H](N)Cc1c[nH]cn1)[C@@H](C)O)[C@@H](C)O)C(C)C)C(C)C)C(=O)N[C@@H](CC(C)C)C(=O)NC(C)(C)C(=O)N[C@@H](CCC(=O)O)C(=O)O [Peptide 440] (H-H[Aib]QGTFTSDVSK[αMeF]LDKK([AEEA-AEEA-γGlu-C20 diacid])RARDFVRWLL[Aib]E-OH; N-terminus assumed) | 154 pM | 1.0 | 81 pM |  | 
7 | CC(C)C[C@H](NC(=O)[C@H](Cc1c[nH]c2ccccc12)NC(=O)[C@H](CCC(N)=O)NC(=O)[C@@H](NC(=O)[C@H](Cc1ccccc1)NC(=O)[C@H](CC(=O)O)NC(=O)[C@H](CCCNC(=N)N)NC(=O)[C@H](C)NC(=O)[C@H](CCCNC(=N)N)NC(=O)[C@H](CCCCNC(=O)COCCOCCNC(=O)COCCOCCNC(=O)CC[C@H](NC(=O)CCCCCCCCCCCCCCCCC(=O)O)C(=O)O)NC(=O)[C@@H](NC(=O)[C@H](CCC(=O)O)NC(=O)[C@H](CC(C)C)NC(=O)[C@](C)(Cc1ccccc1)NC(=O)[C@H](CCCCN)NC(=O)[C@H](CO)NC(=O)[C@@H](NC(=O)[C@H](CC(=O)O)NC(=O)[C@H](CO)NC(=O)[C@@H](NC(=O)[C@H](Cc1ccccc1)NC(=O)[C@@H](NC(=O)CNC(=O)[C@H](CCC(N)=O)NC(=O)C(C)(C)NC(=O)[C@@H](N)Cc1c[nH]cn1)[C@@H](C)O)[C@@H](C)O)C(C)C)[C@@H](C)O)C(C)C)C(=O)N[C@@H](CC(C)C)C(=O)N[C@@H](CCC(=O)O)C(=O)NC(C)(C)C(=O)NCC(=O)O [Peptide 445] (H-H[Aib]QGTFTSDVSK[αMeF]LETK([AEEA-AEEA-γGlu-C18 diacid])RARDFVQWLLE[Aib]G-OH) |  |  |  | 33 pM | 684 pM
